Experimental findings from PubChem BioAssay (NCI) are described below.

Test systems include TK-10 renal; SK-MEL-2 melanoma; SK-MEL-28 melanoma; 786-0 renal; UACC-257 melanoma; K-562 leukemia; BT-549 breast; SK-OV-3 ovarian.
Assay in all cases: DTP human tumour cell line panel, 48 h

Molecules are shown by their SMILES.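 Values below derive from 48-hour exposures of cells grown in 96-well plates, with endpoints linearly interpolated between the two concentrations bracketing the appropriate inhibition level. GI50 = concentration required for 50% inhibition of growth. TGI: total growth inhibition.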

`C=C(Cn1c(=O)c2ccccc2c2ccccc21)c1ccc(C(=O)Nc2ccccc2N)cc1`: the GI50 in the experiment with TK-10 renal was 33.8 µM; in the experiment on SK-MEL-2 melanoma, above 86.3 µM; in the experiment with SK-MEL-28 melanoma, above 37.8 µM; with 786-0 renal, 5.95 µM; in the experiment on UACC-257 melanoma it was above 41.4 µM; with K-562 leukemia it was 0.781 µM. Besides, the figures for the GI50 in the experiment with BT-549 breast and in the experiment with SK-OV-3 ovarian were 14.8 µM and 24.3 µM, respectively. In addition, the TGI in the experiment on TK-10 renal was above 100 µM; in the experiment on SK-MEL-2 melanoma it was above 100 µM; with SK-MEL-28 melanoma it was above 100 µM; in the experiment with 786-0 renal, above 100 µM; with UACC-257 melanoma, above 100 µM; with BT-549 breast, 97.7 µM. In the experiment on SK-OV-3 ovarian, the TGI was above 100 µM.

As to `COc1ccc(-c2[nH]ncc2-c2cc3c(c(OC)c2)OCC(=O)N3)cc1`, the GI50 is 7.59 µM in the experiment on TK-10 renal; 0.564 µM in the experiment with SK-MEL-2 melanoma; 5.19 µM with SK-MEL-28 melanoma; 1.21 µM with 786-0 renal; 3.23 µM in the experiment on UACC-257 melanoma; 0.309 µM in the experiment on K-562 leukemia. Moreover, the GI50 was 0.469 µM with BT-549 breast and 0.715 µM in the experiment with SK-OV-3 ovarian. In addition, the TGI in the experiment on TK-10 renal was above 100 µM; in the experiment on SK-MEL-2 melanoma, 81.6 µM; in the experiment on SK-MEL-28 melanoma it was above 100 µM; in the experiment with 786-0 renal, above 100 µM; in the experiment with UACC-257 melanoma, above 72.4 µM; in the experiment on K-562 leukemia, above 100 µM. Besides, the TGI is 41.5 µM with BT-549 breast and above 100 µM with SK-OV-3 ovarian.

Turning to `Cc1cc(C)nc(NC(N)=NCCc2ccccc2)n1`, the GI50 with TK-10 renal was 17.6 µM; in the experiment on SK-MEL-2 melanoma, 12.6 µM; with SK-MEL-28 melanoma, 3.59 µM; with 786-0 renal, 4.86 µM; with UACC-257 melanoma, 2.64 µM; in the experiment with K-562 leukemia, 3.56 µM. The values for the GI50 in the experiment on BT-549 breast and with SK-OV-3 ovarian were 3.92 µM and 2.65 µM, respectively. In addition, the TGI with TK-10 renal is above 100 µM; with SK-MEL-2 melanoma, above 100 µM; with SK-MEL-28 melanoma it was 33.6 µM; in the experiment with 786-0 renal, above 100 µM; with UACC-257 melanoma, 39.4 µM; with K-562 leukemia it was above 100 µM. Also, the TGI in the experiment with BT-549 breast is above 100 µM; with SK-OV-3 ovarian, 28.9 µM.

For `Nc1ccn(C2OC(CO)C(O)C2F)c(=O)n1` (stereo not given), the GI50 with TK-10 renal, with SK-MEL-2 melanoma, in the experiment with SK-MEL-28 melanoma, with 786-0 renal, with UACC-257 melanoma and with K-562 leukemia was above 5000 µM throughout. Also, the GI50 in the experiment on BT-549 breast and in the experiment on SK-OV-3 ovarian was above 5000 µM in each case. Also, the TGI with TK-10 renal, in the experiment on SK-MEL-2 melanoma, in the experiment on SK-MEL-28 melanoma, with 786-0 renal, with UACC-257 melanoma and in the experiment with K-562 leukemia was above 5000 µM each time. Also, the TGI in the experiment on BT-549 breast and in the experiment on SK-OV-3 ovarian was above 5000 µM each time.

Consider `C[n+]1c(/C=C\C=C\N2CCCCC2)sc2ccccc21`, for which the GI50 was 2.19 µM with TK-10 renal; 0.634 µM with SK-MEL-2 melanoma; 0.552 µM with SK-MEL-28 melanoma; 2.55 µM with 786-0 renal; 0.278 µM in the experiment on UACC-257 melanoma; 0.172 µM with K-562 leukemia. The results for the GI50 with BT-549 breast and in the experiment on SK-OV-3 ovarian were 0.261 µM and 0.794 µM, respectively. The TGI in the experiment on TK-10 renal was 16.5 µM; in the experiment on SK-MEL-2 melanoma it was 14.3 µM; in the experiment with SK-MEL-28 melanoma, 13.4 µM; in the experiment on 786-0 renal it was above 36.6 µM; in the experiment with UACC-257 melanoma it was 2.18 µM; in the experiment on K-562 leukemia, 12.7 µM. Also, the total growth inhibition concentration (TGI) was found to be 3.5 µM in the experiment on BT-549 breast and 6.79 µM in the experiment with SK-OV-3 ovarian.

As for `C(=Nc1ccccc1)C1CCCC[N-]1.C(=Nc1ccccc1)C1CCCC[N-]1.[Cu+2].[O-][Cl+3]([O-])([O-])O` (stereo not given), the GI50 was 9.8 µM in the experiment with TK-10 renal; 15.8 µM in the experiment on SK-MEL-2 melanoma; 20.5 µM in the experiment with SK-MEL-28 melanoma; 13.3 µM with 786-0 renal; above 37.7 µM with UACC-257 melanoma; 0.745 µM with K-562 leukemia. In addition, the GI50 with BT-549 breast is 18.5 µM; in the experiment on SK-OV-3 ovarian, 0.704 µM. Besides, the TGI was 32.7 µM in the experiment on TK-10 renal; 40.9 µM in the experiment with SK-MEL-2 melanoma; 48.5 µM with SK-MEL-28 melanoma; above 58.7 µM in the experiment on 786-0 renal; above 55.2 µM with UACC-257 melanoma; 14.4 µM in the experiment on K-562 leukemia. In addition, the results for the TGI in the experiment on BT-549 breast and in the experiment with SK-OV-3 ovarian were 55.8 µM and 35.8 µM, respectively.

As to `Nc1ncnc2c1ncn2C1OC(COP(=O)(O)CP(=O)(O)O)C(O)C1O` (stereo not given), the TGI in the experiment with TK-10 renal, in the experiment on SK-MEL-2 melanoma, in the experiment with SK-MEL-28 melanoma, in the experiment on 786-0 renal, with UACC-257 melanoma and in the experiment on K-562 leukemia was above 100 µM in each case. The TGI with BT-549 breast and in the experiment with SK-OV-3 ovarian was above 100 µM throughout.

Take `O=C(/C=C/c1ccc(B(O)O)cc1)/C=C/c1ccc(B(O)O)cc1`: the GI50 in the experiment with TK-10 renal is 5.12 µM; with SK-MEL-2 melanoma, 16 µM; in the experiment on SK-MEL-28 melanoma it was 2.26 µM; in the experiment on 786-0 renal it was 2.16 µM; in the experiment on UACC-257 melanoma it was 3.4 µM; in the experiment on K-562 leukemia, 3.1 µM. Further, the GI50 was 1.55 µM in the experiment on BT-549 breast and 3.65 µM with SK-OV-3 ovarian. Besides, the TGI with TK-10 renal was 17.3 µM; with SK-MEL-2 melanoma it was 40.9 µM; in the experiment on SK-MEL-28 melanoma, 5.21 µM; in the experiment with 786-0 renal, 5.57 µM; in the experiment with UACC-257 melanoma, 13.3 µM; in the experiment with K-562 leukemia it was above 100 µM. Moreover, the results for the TGI in the experiment on BT-549 breast and with SK-OV-3 ovarian were 3.35 µM and 14.5 µM, respectively.

For `CCCN(CCC)CCCNCc1cc(I)cc(C)c1O`, the GI50 in the experiment with TK-10 renal was 16.1 µM; in the experiment with SK-MEL-2 melanoma, 20.1 µM; with SK-MEL-28 melanoma, 15.4 µM; in the experiment with 786-0 renal it was 13.6 µM; in the experiment on UACC-257 melanoma, 11.5 µM; in the experiment on K-562 leukemia, 6.12 µM. For the same molecule, the GI50 in the experiment on BT-549 breast was 12.3 µM; in the experiment on SK-OV-3 ovarian, 16.3 µM. The TGI in the experiment with TK-10 renal was 30.6 µM; in the experiment on SK-MEL-2 melanoma, 36.3 µM; with SK-MEL-28 melanoma it was 28.9 µM; in the experiment with 786-0 renal, 26.4 µM; in the experiment with UACC-257 melanoma, 27.7 µM; in the experiment with K-562 leukemia, 19.4 µM. Besides, the TGI is 24.8 µM in the experiment with BT-549 breast and 31 µM in the experiment on SK-OV-3 ovarian.

For orientation: GI50 means the concentration that inhibits growth by half. As a reminder, the TGI is the concentration at which net growth stops. Low values mean greater sensitivity of the cells, high ones lower sensitivity of the cells.
